Here are results for two compounds from article PMC7767178 (International Journal of Molecular Sciences, 2020).

The test system of one series is mice. Briefly: Toxic effect on mice. It counts as in vivo. To be noted: reason for exclusion from the mouse models.
A further series concerns A. veronii ATCC35624. It counts as cell-based.
Another series concerns pepsin. To be noted: pH 2.
The next series relates to A. veronii ACCC61732. Briefly: ATP release, BacTiter-Glo. In kind it is cell-based. To be noted: 8×, 16× and 32× MIC, 60 min, 37 °C, luminescence, n = 3. On the procedure: The assay was performed for three biological replicates at 37 °C, with luminescence recorded using a Tecan Infinite M1000 Pro plate reader. The fold reduction of ATP was calculated as: Fold reduction ATP = 1 − (Ltreat − Lmedia/Lcontrol − Lmedia), where Ltreat is the luminescence of treated cells, Lmedia is the luminescence of MHB without cells, and Lcontrol is the luminescence of untreated cells. Resultant graphs show mean (n = 3) and SEM for each data point, prepared in Prism 7 [46].

Series [1] has as its system A. veronii ACCC61732 biofilm. In kind it is cell-based. The settings on record: 16× MIC, 24 h, crystal violet. On the procedure: Mid-log phase A. veronii ACCC61732 cells (1 × 10^8 CFU/mL, 180 µL) were added into the 96-well plates. […] Effects of peptides on biofilms formation was evaluated by the crystal violet staining as previously described. The untreated bacteria were used as the negative control (A) and fresh TSB medium was used as the blank control (A0). The inhibition effect of peptides on early biofilms was determined by the following equation: Biofilms (%) = [(Apeptides − A0)/(A − A0)] × 100.

Values after ≈ are worked out from the molar mass of the structure shown. Read-outs that look alike come from different tables or passages of the source.

On to `CC(C)[C@@H]1NC(=O)CNC(=O)[C@H](CC(N)=O)NC(=O)[C@H](CCCNC(=N)N)NC(=O)[C@H](Cc2ccc(O)cc2)NC(=O)[C@H](C(C)C)NC(=O)[C@@H](NC(=O)[C@@H](NC(=O)[C@H](CC(N)=O)NC(=O)[C@H](Cc2c[nH]c3ccccc23)NC(=O)[C@H](C)NC(=O)[C@H](Cc2ccccc2)NC(=O)[C@H](CCCN)N=C(N(C)C)N(C)C)C(C)C)CSSC[C@@H](C(=O)N[C@@H](Cc2c[nH]cn2)C(=O)N[C@@H](CCCNC(=N)N)C(=O)N[C@@H](CCCNC(=N)N)C(=O)N[C@@H](C)C(=O)N[C@@H](CC(N)=O)C(N)=O)NC(=O)[C@H](C(C)C)NC(=O)[C@H](CCCNC(=N)N)NC1=O` (stereo in doubt) [Guo-N6NH2], for which, in the series on mice, the toxicity in mice entry is reported as “toxic effect on mice”. For the same compound, the minimal inhibitory concentration (MIC) against A. veronii ATCC35624 (A. veronii ATCC35624, broth dilution, 37 °C, 16–18 h, three experiments) stood at 32 µg/mL; with A. veronii ATCC35624 (ATCC35624) it was 12.16 µM. Moreover, the “MIC after pepsin treatment” value against pepsin turned out to be 8 µg/mL (≈ 3.04 µM). The ATP release with A. veronii ACCC61732 is 66.23–92.09%.

Regarding `O=C(O)c1cn(C2CC2)c2cc(N3CCNCC3)c(F)cc2c1=O` [CIP, ciprofloxacin, reference compound], the “inhibition of early biofilm” value in series [1] is listed as 70.75%. In addition, the ATP release in the series with A. veronii ACCC61732 is 7.06–47.60%.
